# Test results reported in patent publication US20040087633A1, “Methylidene oxazolidinone compound and preparation method thereof” (Korea Institute of Science and Technology, priority 2002, published 2004).
# Tests used:
# Experiment in all cases: Anti-microbial activity test in vitro (agar dilution MIC)
# VRE C6488 = type: cell-based, Enterococcus faecium; conditions: VRE C6488; Agar Dilution method, Mueller Hinton Agar, 18 hours at 37° C.
# Protocol: (§1) Anti-microbial activity test in vitro
# (§2) Strains were cultivated for 18 hours at 37° C. in Agar Dilution method using Mueller Hinton Agar, and then plane plates inoculated with the strains by diluting them two times gradually were aligned in a row. Minimum inhibition concentration (MIC, μg/ml) for the representative compounds of the present invention, Linezolid (LZD) and vancomycin (VAN) were decided through visual observation, and the results are shown in the following tables 2 and 3.
# VRE C6487 = type: cell-based, Enterococcus faecium; conditions: VRE C6487; Agar Dilution method, Mueller Hinton Agar, 18 hours at 37° C.
# Protocol: as §1, §2
# MSSA C2214 = type: cell-based, Staphylococcus aureus; conditions: MSSA C2214; Agar Dilution method, Mueller Hinton Agar, 18 hours at 37° C.
# Protocol: as §1, §2
# MRSA C6068 = type: cell-based, Staphylococcus aureus; conditions: MRSA C6068; Agar Dilution method, Mueller Hinton Agar, 18 hours at 37° C.
# Protocol: as §1, §2
# MSSA C7142 = type: cell-based, Staphylococcus aureus; conditions: MSSA C7142; Agar Dilution method, Mueller Hinton Agar, 18 hours at 37° C.
# Protocol: as §1, §2
# CRSA C6043 = type: cell-based, Staphylococcus aureus; conditions: CRSA C6043; Agar Dilution method, Mueller Hinton Agar, 18 hours at 37° C.
# Protocol: as §1, §2
# MRSA C2207 = type: cell-based, Staphylococcus aureus; conditions: MRSA C2207; Agar Dilution method, Mueller Hinton Agar, 18 hours at 37° C.
# Protocol: as §1, §2
# MRSA C5100 = type: cell-based, Staphylococcus aureus; conditions: MRSA C5100; Agar Dilution method, Mueller Hinton Agar, 18 hours at 37° C.
# Protocol: as §1, §2
# CRSA C1062 = type: cell-based, Staphylococcus aureus; conditions: CRSA C1062; Agar Dilution method, Mueller Hinton Agar, 18 hours at 37° C.
# Protocol: as §1, §2
# E. faecium C6301 = type: cell-based; conditions: E. faecium C6301; Agar Dilution method, Mueller Hinton Agar, 18 hours at 37° C.
# Protocol: as §1, §2
# S. epidermidis C2235 = type: cell-based; conditions: S. epidermidis C2235; Agar Dilution method, Mueller Hinton Agar, 18 hours at 37° C.
# Protocol: as §1, §2
# S. pyogenes ATCC8668 = type: cell-based; conditions: S. pyogenes ATCC8668; Agar Dilution method, Mueller Hinton Agar, 18 hours at 37° C.
# Protocol: as §1, §2
# S. epidermidis C2230 = type: cell-based; conditions: S. epidermidis C2230; Agar Dilution method, Mueller Hinton Agar, 18 hours at 37° C.
# Protocol: as §1, §2
# E. faecalis ATCC29212 = type: cell-based; conditions: E. faecalis ATCC29212; Agar Dilution method, Mueller Hinton Agar, 18 hours at 37° C.
# Protocol: as §1, §2
# S. epidermidis ATCC12228 = type: cell-based; conditions: S. epidermidis ATCC12228; Agar Dilution method, Mueller Hinton Agar, 18 hours at 37° C.
# Protocol: as §1, §2
# S. pyogenes C6003 = type: cell-based; conditions: S. pyogenes C6003; Agar Dilution method, Mueller Hinton Agar, 18 hours at 37° C.
# Protocol: as §1, §2
# S. pyogenes C6012 = type: cell-based; conditions: S. pyogenes C6012; Agar Dilution method, Mueller Hinton Agar, 18 hours at 37° C.
# Protocol: as §1, §2
# S. aureus ATCC 29213 = type: cell-based; conditions: Agar Dilution method, Mueller Hinton Agar, 18 hours at 37° C.
# Protocol: as §1, §2
# E. faecalis C6288 = type: cell-based; conditions: E. faecalis C6288; Agar Dilution method, Mueller Hinton Agar, 18 hours at 37° C.
# Protocol: as §1, §2
# E. faecium C2252 = type: cell-based; conditions: E. faecium C2252; Agar Dilution method, Mueller Hinton Agar, 18 hours at 37° C.
# Protocol: as §1, §2
# E. faecalis C6291 = type: cell-based; conditions: E. faecalis C6291; Agar Dilution method, Mueller Hinton Agar, 18 hours at 37° C.
# Protocol: as §1, §2
SMILES,Minimum inhibition concentration (MIC) (VRE C6488) [µg/mL],Minimum inhibition concentration (MIC) (VRE C6487) [µg/mL],Minimum inhibition concentration (MIC) (MSSA C2214) [µg/mL],Minimum inhibition concentration (MIC) (MRSA C6068) [µg/mL],Minimum inhibition concentration (MIC) (MSSA C7142) [µg/mL],Minimum inhibition concentration (MIC) (CRSA C6043) [µg/mL],Minimum inhibition concentration (MIC) (MRSA C2207) [µg/mL],Minimum inhibition concentration (MIC) (MRSA C5100) [µg/mL],Minimum inhibition concentration (MIC) (CRSA C1062) [µg/mL],Minimum inhibition concentration (MIC) (E. faecium C6301) [µg/mL],Minimum inhibition concentration (MIC) (S. epidermidis C2235) [µg/mL],Minimum inhibition concentration (MIC) (S. pyogenes ATCC8668) [µg/mL],Minimum inhibition concentration (MIC) (S. epidermidis C2230) [µg/mL],Minimum inhibition concentration (MIC) (E. faecalis ATCC29212) [µg/mL],Minimum inhibition concentration (MIC) (S. epidermidis ATCC12228) [µg/mL],Minimum inhibition concentration (MIC) (S. pyogenes C6003) [µg/mL],Minimum inhibition concentration (MIC) (S. pyogenes C6012) [µg/mL],Minimum inhibition concentration (MIC) (S. aureus ATCC 29213) [µg/mL],Minimum inhibition concentration (MIC) (E. faecalis C6288) [µg/mL],Minimum inhibition concentration (MIC) (E. faecium C2252) [µg/mL],also measured
"CC(=O)NC[C@H]1CN(c2ccc(N3CCC(=Cc4cc(-c5cccs5)no4)CC3)c(F)c2)C(=O)O1 [Compound 9, N-[[(5S)-3-[3-fluoro-4-((4-(3-thiophen-2-yl-5-isoxazolyl)-methylidene)piperidinyl)phenyl]-2-oxo-5-oxazolidinyl]methyl]acetamide]",16,16,16,16,32,16,32,16,32,16,8,2,8,16,4,16,4,32,16,16,Minimum inhibition concentration (MIC) (E. faecalis C6291): 16 µg/mL
"CC(=O)NC[C@H]1CN(c2ccc(N3CCC(=Cc4cc(-c5csnc5C)no4)CC3)c(F)c2)C(=O)O1 [Compound 10, N-[[(5S)-3-[3-fluoro-4-((4-(3-(3-methyl-isothiazol-4-yl)-iso-xazolyl)methylidene)piperidinyl)phenyl]-2-oxo-5-oxazolidinyl]methyl]acetamide]",8,4,16,8,8,16,16,8,16,8,4,2,4,16,2,8,2,16,16,8,Minimum inhibition concentration (MIC) (E. faecalis C6291): 8 µg/mL
"CCOC(=O)C=C1CCN(c2ccc(N3C[C@H](CNC(C)=O)OC3=O)cc2F)CC1 [Compound 11, N-[[(5S)-3-[3-fluoro-4-(4-ethoxycarbonylmethylidene-piperidinyl)phenyl]-2-oxo-5-oxazolidinyl]methyl]acetamide]",8,8,16,8,16,8,8,8,8,8,4,2,8,8,2,8,2,16,8,8,Minimum inhibition concentration (MIC) (E. faecalis C6291): 8 µg/mL
"CC(=O)C=C1CCN(c2ccc(N3C[C@H](CNC(C)=O)OC3=O)cc2F)CC1 [Compound 12, N-[[(5S)-3-[3-fluoro-4-(4-methylcarbonylmethylidene-piperidinyl)phenyl]-2-oxo-5-oxazolidinyl]methyl]acetamide]",8,2,16,16,16,16,8,8,8,8,8,8,8,16,1,0.2,16,8,16,8,Minimum inhibition concentration (MIC) (E. faecalis C6291): 16 µg/mL
"CCOC(=O)C(C)=C1CCN(c2ccc(N3C[C@H](CNC(C)=O)OC3=O)cc2F)CC1 [Compound 13, N-[[(5S)-3-[3-fluoro-4-(4-(1-ethoxycarbonylethylidene)-piperidinyl)phenyl]-2-oxo-5-oxazolidinyl]methyl]acetamide]",8,1,16,8,8,8,16,8,16,8,8,8,16,16,4,4,16,16,16,8,Minimum inhibition concentration (MIC) (E. faecalis C6291): 8 µg/mL
